Reference: patent publication US4462991A, “Method of increasing oral absorption of polar bioactive agents” (INTERx Research Corp., priority 1982, dated 1984)

Experiment: Percent bioavailability after intraduodenal injection in anesthetized rats, (AUC)0-90 min relative to i.v.
Settings: male, Sprague-Dawley, rat, in vivo, other: intraduodenal injection, 2.5 mg per animal, pH 5, Control (no adjuvant), intraduodenal injection 0.25 ml, drug 10 mg/ml, pH 5, ionic strength 0.3, AUC 0-90 min vs i.v., read-out: Percent Bioavailability (% BA)
Method: The following tests were run showing Percent Bioavailability (% BA)
The above tests were done according to the following protocol:
Animals: Male Sprague-Dawley rats (200-250 g)
Anesthesia: Ethyl carbamate by i.m. injection
Blood 0.6 ml from external jugular vein at
(AUC)o^90 calculated from summation
For the oral test an intraduodenal injection 1.0 cm distal to the pylorus was done . The volume of the injection was 0.25 ml at 0.3 ionic strength (adjusted with sodium chloride) and a pH of 5.
The drug was administered at 10 mg/ml unless otherwise noted and the adjuvant at 20 mg/ml unless otherwise noted.
The (AUC)i.v. was determined for each drug, based on the mean value from 3-6 animals.

bioavailability: 1%
Structure (SMILES): CC(C)[C@@H]1NC(=O)[C@H](CCCCN)NC(=O)[C@@H](Cc2c[nH]c3ccccc23)NC(=O)[C@H](Cc2ccc(O)cc2)NC(=O)[C@H](C)N(C)C(=O)[C@H](Cc2ccccc2)NC1=O [Cyclo-(N-Me-Ala-Tyr-D-Trp-Lys-Val-Phe)]
